Source: ChEMBL document CHEMBL4480363, “Recent developments in compounds acting in the DNA minor groove” (Medchemcomm, 2019)
≈ marks a conversion by molar mass, not a printed value.

Assays:
[1] = test system: Candida albicans; test: Antifungal activity against Candida albicans SC5314 incubated for 24 hrs by CLSI based broth microdilution method; type: functional; conditions: SC5314, 24 h
[2] = test system: Nakaseomyces glabratus; test: Antifungal activity against Candida glabrata ATCC 2001 incubated for 24 hrs by CLSI based broth microdilution method; type: functional; conditions: ATCC 2001, 24 h
[3] = test system: Candida parapsilosis; test: Antifungal activity against Candida parapsilosis ATCC 22019 incubated for 24 hrs by CLSI based broth microdilution method; type: functional; conditions: Lodderomyces parapsilosis, ATCC 22019, 24 h
[4] = test system: Mycobacterium tuberculosis; test: Antitubercular activity against Mycobacterium tuberculosis HN878; type: functional
[5] = test system: Mycobacterium tuberculosis; test: Antitubercular activity against Mycobacterium tuberculosis HN878 in presence of non-ionic surfactant vesicles relative to compound alone; type: functional
[6] = test system: Trypanosoma brucei gambiense; test: Trypanocidal activity against Trypanosoma brucei gambiense; type: functional, organism-based

Row | SMILES | MIC50 [1] [µg/mL] | MIC50 [2] [µg/mL] | MIC50 [3] [µg/mL] | MIC50 [4] [µM] | fold change (FC) [5] | IC50 [6] [nM]
1 | Cl.Cl.N=C(N)N/N=C/c1ccc(-c2ccc(/C=N/NC(=N)N)s2)cc1 | 2 to 15.6 | 2 to 15.6 | 2 to 15.6 | – | – | –
2 | Cn1cc(NC(=O)c2cc(NC(=O)c3ccc(/C=C/c4ccc(C(F)(F)F)cc4)cc3)cn2C)cc1C(=O)NCCC(=N)N | – | – | – | 4.19 (≈ 2.54 µg/mL) | 2.1 | –
3 | Cl.Cl.N=C(N)N/N=C/c1ccc(-c2cnc(-c3ccc(/C=N/NC(=N)N)cc3)s2)cc1 | 2 to 15.6 | 2 to 15.6 | 2 to 15.6 | – | – | –
4 | Cn1cc(NC(=O)c2cc(NC(=O)c3ccc(/C=C/c4nc5ccccc5s4)cc3)cn2C)cc1C(=O)NCCC(=N)N | – | – | – | 4.09 (≈ 2.43 µg/mL) | 1.6 | –
5 | C/C(=N\NC(=N)N)c1ccc(-c2ccc(/C(C)=N/NC(=N)N)s2)cc1.Cl.Cl | 2 to 15.6 | 2 to 15.6 | 2 to 15.6 | – | – | –
6 | Cl.Cl.N=C(N)N/N=C/c1ccc(-c2ccc(/C=N/NC(=N)N)o2)cc1 | 2 to 15.6 | 2 to 15.6 | 2 to 15.6 | – | – | –
7 | N=C(N)c1ccc(OCCCCCOc2ccc(C(=N)N)cc2)cc1 [PENTAMIDINE] | – | – | – | – | – | 1 to 10
